What was measured:
NCI-H226 = experiment: Cytotoxicity against human NCI-H226 cells assessed as cell growth at 10^-5 M after 48 hrs by sulforhodamine B assay; type: functional; conditions: NCI-H226, 48 h, read-out: Activity
[1] = Cytotoxicity against human IGROV1 cells assessed as cell growth at 10^-5 M after 48 hrs by sulforhodamine B assay; type: functional; conditions: IGROV-1, 48 h, read-out: Activity
Malme-3M = experiment: Cytotoxicity against human MALME-3M cells assessed as cell growth at 10^-5 M after 48 hrs by sulforhodamine B assay; type: functional; conditions: read-out: Activity
HT-29 [2] = experiment: Cytotoxicity against human HT-29 cells assessed as cell growth at 10^-5 M after 48 hrs by sulforhodamine B assay; type: functional; conditions: HT-29, 48 h, read-out: Activity
[3] = Cytotoxicity against human SF539 cells assessed as cell growth at 10^-5 M after 48 hrs by sulforhodamine B assay; type: functional; conditions: SF-539, 48 h, read-out: Activity
[4] = Cytotoxicity against human LOXIMVI cells assessed as cell growth at 10^-5 M after 48 hrs by sulforhodamine B assay; type: functional; conditions: LOX IMVI, read-out: Activity
CCRF-CEM = experiment: Cytotoxicity against human CCRF-CEM cells assessed as cell growth at 10^-5 M after 48 hrs by sulforhodamine B assay; type: functional; conditions: read-out: Activity
NCI-H23 = experiment: Cytotoxicity against human NCI-H23 cells assessed as cell growth at 10^-5 M after 48 hrs by sulforhodamine B assay; type: functional; conditions: NCI-H23, 48 h, read-out: Activity
[5] = Cytotoxicity against human Caki1 cells assessed as cell growth at 10^-5 M after 48 hrs by sulforhodamine B assay; type: functional; conditions: CAKI-1, 48 h, read-out: Activity
[6] = Cytotoxicity against human MOLT4 cells assessed as cell growth at 10^-5 M after 48 hrs by sulforhodamine B assay; type: functional; conditions: MOLT-4, 48 h, read-out: Activity
EKVX = experiment: Cytotoxicity against human EKVX cells assessed as cell growth at 10^-5 M after 48 hrs by sulforhodamine B assay; type: functional; conditions: read-out: Activity
[7] = Cytotoxicity against human UACC62 cells assessed as cell growth at 10^-5 M after 48 hrs by sulforhodamine B assay; type: functional; conditions: UACC-62, 48 h, read-out: Activity
MDA-MB-231 = experiment: Cytotoxicity against human MDA-MB-231 cells assessed as cell growth at 10^-5 M after 48 hrs by sulforhodamine B assay; type: functional; conditions: MDA-MB-231, 48 h, read-out: Activity
[8] = Cytotoxicity against human OVCAR3 cells assessed as cell growth at 10^-5 M after 48 hrs by sulforhodamine B assay; type: functional; conditions: OVCAR-3, 48 h, read-out: Activity
[9] = Cytotoxicity against human OVCAR4 cells assessed as cell growth at 10^-5 M after 48 hrs by sulforhodamine B assay; type: functional; conditions: OVCAR-4, 48 h, read-out: Activity
[10] = Cytotoxicity against human Hs 578T cells assessed as cell growth at 10^-5 M after 48 hrs by sulforhodamine B assay; type: functional; conditions: read-out: Activity
M14 = experiment: Cytotoxicity against human M14 cells assessed as cell growth at 10^-5 M after 48 hrs by sulforhodamine B assay; type: functional; conditions: M14, 48 h, read-out: Activity
[11] = Cytotoxicity against human HOP92 cells assessed as cell growth at 10^-5 M after 48 hrs by sulforhodamine B assay; type: functional; conditions: HOP-92, 48 h, read-out: Activity
[12] = Cytotoxicity against human PC3 cells assessed as cell growth at 10^-5 M after 48 hrs by sulforhodamine B assay; type: functional; conditions: PC-3, 48 h, read-out: Activity
[13] = Cytotoxicity against human SNB19 cells assessed as cell growth at 10^-5 M after 48 hrs by sulforhodamine B assay; type: functional; conditions: SNB-19, 48 h, read-out: Activity
[14] = Cytotoxicity against human UACC257 cells assessed as cell growth at 10^-5 M after 48 hrs by sulforhodamine B assay; type: functional; conditions: UACC-257, 48 h, read-out: Activity
[15] = Cytotoxicity against human TK10 cells assessed as cell growth at 10^-5 M after 48 hrs by sulforhodamine B assay; type: functional; conditions: TK-10, 48 h, read-out: Activity
cells [16] = conditions: Homo sapiens, PC-3, 48 h
Description: Cytotoxicity against human PC3 cells after 48 hrs by sulforhodamine B assay

SR = experiment: Cytotoxicity against human SR cells after 48 hrs by sulforhodamine B assay; type: functional
HT-29 [17] = experiment: cells; conditions: Homo sapiens, HT-29, 48 h
Description: Cytotoxicity against human HT-29 cells after 48 hrs by sulforhodamine B assay

T47D = experiment: cells; conditions: Homo sapiens, 48 h
Description: Cytotoxicity against human T47D cells after 48 hrs by sulforhodamine B assay

cells [18] = conditions: Homo sapiens, MOLT-4, 48 h
Description: Cytotoxicity against human MOLT4 cells after 48 hrs by sulforhodamine B assay

U-251 = experiment: cells; conditions: Homo sapiens, U-251, 48 h
Description: Cytotoxicity against human U251 cells after 48 hrs by sulforhodamine B assay

cells [19] = conditions: Homo sapiens, SF-539, 48 h
Description: Cytotoxicity against human SF539 cells after 48 hrs by sulforhodamine B assay

[20] = Cytotoxicity against human NCI-ADR-RES cells after 48 hrs by sulforhodamine B assay; type: functional
cells [21] = conditions: Homo sapiens, HCC 2998, 48 h
Description: Cytotoxicity against human HCC2998 cells after 48 hrs by sulforhodamine B assay

A549 = experiment: cells; conditions: Homo sapiens, A549, 48 h
Description: Cytotoxicity against human A549 cells after 48 hrs by sulforhodamine B assay

cells [22] = conditions: Homo sapiens, UO-31, 48 h
Description: Cytotoxicity against human UO31 cells after 48 hrs by sulforhodamine B assay

SK-MEL-28 = experiment: cells; conditions: Homo sapiens, SK-MEL-28, 48 h
Description: Cytotoxicity against human SK-MEL-28 cells after 48 hrs by sulforhodamine B assay

cells [23] = conditions: Homo sapiens, OVCAR-8, 48 h
Description: Cytotoxicity against human OVCAR8 cells after 48 hrs by sulforhodamine B assay

cells [24] = conditions: Homo sapiens, COLO 205, 48 h
Description: Cytotoxicity against human COLO205 cells after 48 hrs by sulforhodamine B assay

NCI-H460 = experiment: cells; conditions: Homo sapiens, NCI-H460, 48 h
Description: Cytotoxicity against human NCI-H460 cells after 48 hrs by sulforhodamine B assay

cells [25] = conditions: Homo sapiens, DU-145, 48 h
Description: Cytotoxicity against human DU145 cells after 48 hrs by sulforhodamine B assay

[26] = read-out: LC50 (the source's name)

SMILES: O=C1NC(=O)C(=Cc2cn(CC(O)Cn3cc(C=C4C(=O)NC(=O)NC4=O)c4ccccc43)c3ccccc23)C(=O)N1
- growth at 10 µM (NCI-H226): 108%
- growth at 10 µM [1]: 97.3%
- growth at 10 µM (Malme-3M): 97.7%
- growth at 10 µM (HT-29 [2]): 88.3%
- growth at 10 µM [3]: 108%
- growth at 10 µM [4]: 98%
- growth at 10 µM (CCRF-CEM): 105%
- growth at 10 µM (NCI-H23): 94.7%
- growth at 10 µM [5]: 101%
- growth at 10 µM [6]: 110%
- growth at 10 µM (EKVX): 101%
- growth at 10 µM [7]: 106%
- growth at 10 µM (MDA-MB-231): 105%
- growth at 10 µM [8]: 109%
- growth at 10 µM [9]: 100%
- growth at 10 µM [10]: 108%
- growth at 10 µM (M14): 98.7%
- growth at 10 µM [11]: 101%
- growth at 10 µM [12]: 93.7%
- growth at 10 µM [13]: 103%
- growth at 10 µM [14]: 110%
- growth at 10 µM [15]: 105%

SMILES: COc1cc(/C=C2\C(=O)Nc3ccccc32)cc(OC)c1O
- GI50 (cells [16]): 20.8 µM
- TGI (cells [16]): > 100 µM
- CC50 (cells [16]; read-out: LC50): > 100 µM
- growth at 10 µM [1]: 70.2%
- GI50 (SR): 1.5 µM
- TGI (SR): 16.9 µM
- CC50 (SR; [26]): > 100 µM
- growth at 10 µM (Malme-3M): 118%
- growth at 10 µM (HT-29 [2]): 75.7%
- growth at 10 µM [3]: 68.8%
- GI50 (HT-29 [17]): 9.1 µM
- TGI (HT-29 [17]): 30.9 µM
- CC50 (HT-29 [17]; read-out: LC50): > 100 µM
- GI50 (T47D): 3.5 µM
- TGI (T47D): 85.1 µM
- CC50 (T47D; read-out: LC50): > 100 µM
- growth at 10 µM [4]: 36.5%
- GI50 (cells [18]): 3.8 µM
- TGI (cells [18]): 93.3 µM
- CC50 (cells [18]; read-out: LC50): > 100 µM
- growth at 10 µM (CCRF-CEM): 26.7%
- growth at 10 µM (NCI-H23): 66.4%
- growth at 10 µM [5]: 37.7%
- growth at 10 µM [6]: 0.62%
- growth at 10 µM (EKVX): 110%
- growth at 10 µM [7]: 72.1%
- growth at 10 µM (MDA-MB-231): 63.1%
- GI50 (U-251): 2.4 µM
- TGI (U-251): 14.1 µM
- CC50 (U-251; read-out: LC50): 42.6 µM
- GI50 (cells [19]): 2.5 µM
- TGI (cells [19]): 13.2 µM
- CC50 (cells [19]; read-out: LC50): 53.7 µM
- growth at 10 µM [8]: 46.9%
- GI50 [20]: 2.5 µM
- TGI [20]: 7.5 µM
- CC50 [20, 26]: > 100 µM
- growth at 10 µM [9]: 89.1%
- GI50 (cells [21]): 11.7 µM
- TGI (cells [21]): 24.5 µM
- CC50 (cells [21]; read-out: LC50): 51.3 µM
- growth at 10 µM [10]: 18.4%
- growth at 10 µM (M14): 53.6%
- GI50 (A549): 4.9 µM
- TGI (A549): 47.8 µM
- CC50 (A549; read-out: LC50): > 100 µM
- GI50 (cells [22]): 2.6 µM
- TGI (cells [22]): 19.9 µM
- CC50 (cells [22]; read-out: LC50): > 100 µM
- GI50 (SK-MEL-28): 5 µM
- TGI (SK-MEL-28): 22.9 µM
- CC50 (SK-MEL-28; read-out: LC50): 83.2 µM
- GI50 (cells [23]): 5 µM
- TGI (cells [23]): 29.5 µM
- CC50 (cells [23]; read-out: LC50): > 100 µM
- GI50 (cells [24]): 12.3 µM
- TGI (cells [24]): 26.9 µM
- CC50 (cells [24]; read-out: LC50): 58.8 µM
- growth at 10 µM [12]: 51.2%
- GI50 (NCI-H460): 3 µM
- TGI (NCI-H460): 11.7 µM
- CC50 (NCI-H460; read-out: LC50): 53.7 µM
- GI50 (cells [25]): 5.4 µM
- TGI (cells [25]): 46.7 µM
- CC50 (cells [25]; read-out: LC50): > 100 µM
- growth at 10 µM [13]: 83.7%
- growth at 10 µM [14]: 62.6%
- growth at 10 µM [15]: 88.5%
